Here are results for 18 compounds from patent publication US20230019491A1, “PYRIMIDINE TBK/IKKe INHIBITOR COMPOUNDS AND USES THEREOF” (Merck Patent GmbH, priority 2017, published 2023).

Where a name gives a salt, the structure may show the parent alone.

For one experiment, the target named is T1, IKKε (Homo sapiens, UniProt Q14164).
T1 sequence (Q14164 1-716): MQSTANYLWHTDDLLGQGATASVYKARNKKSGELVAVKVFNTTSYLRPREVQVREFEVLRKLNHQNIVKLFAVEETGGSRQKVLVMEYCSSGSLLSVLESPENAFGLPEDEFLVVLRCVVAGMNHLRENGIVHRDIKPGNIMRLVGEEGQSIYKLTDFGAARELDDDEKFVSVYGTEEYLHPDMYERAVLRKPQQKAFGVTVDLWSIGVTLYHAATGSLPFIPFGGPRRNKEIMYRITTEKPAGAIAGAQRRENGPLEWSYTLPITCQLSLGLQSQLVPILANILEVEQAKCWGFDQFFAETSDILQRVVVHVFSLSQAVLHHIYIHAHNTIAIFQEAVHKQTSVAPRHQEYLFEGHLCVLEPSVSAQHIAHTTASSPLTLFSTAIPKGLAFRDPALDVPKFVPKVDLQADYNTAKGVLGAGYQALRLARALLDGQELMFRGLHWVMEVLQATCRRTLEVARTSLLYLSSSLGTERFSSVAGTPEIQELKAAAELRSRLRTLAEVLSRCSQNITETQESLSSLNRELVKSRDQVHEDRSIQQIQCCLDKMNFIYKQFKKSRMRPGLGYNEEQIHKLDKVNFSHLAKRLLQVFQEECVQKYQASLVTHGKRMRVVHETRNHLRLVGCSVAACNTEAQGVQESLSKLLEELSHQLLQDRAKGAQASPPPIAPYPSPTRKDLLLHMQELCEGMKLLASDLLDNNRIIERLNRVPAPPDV
In words: IKKε biochemical assay. The conditions noted are these: 10 point 1:4 dose response, 30 uM top concentration, 90 min at 25° C., LabChip EZ Reader II; read-out: IKKε_IC50. A digest of the protocol:
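Compounds in 1% DMSO final were incubated with IKKε enzyme and substrate at 25° C. for 90 min, then stopped. Substrate and product peaks were resolved by LabChip EZ Reader II mobility-shift read-out. Staurosporine at 10 uM final served as the full-inhibition control.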

Another experiment has as its target T2, TBK1 (Homo sapiens, UniProt Q9UHD2).
T2 sequence (Q9UHD2 1-729): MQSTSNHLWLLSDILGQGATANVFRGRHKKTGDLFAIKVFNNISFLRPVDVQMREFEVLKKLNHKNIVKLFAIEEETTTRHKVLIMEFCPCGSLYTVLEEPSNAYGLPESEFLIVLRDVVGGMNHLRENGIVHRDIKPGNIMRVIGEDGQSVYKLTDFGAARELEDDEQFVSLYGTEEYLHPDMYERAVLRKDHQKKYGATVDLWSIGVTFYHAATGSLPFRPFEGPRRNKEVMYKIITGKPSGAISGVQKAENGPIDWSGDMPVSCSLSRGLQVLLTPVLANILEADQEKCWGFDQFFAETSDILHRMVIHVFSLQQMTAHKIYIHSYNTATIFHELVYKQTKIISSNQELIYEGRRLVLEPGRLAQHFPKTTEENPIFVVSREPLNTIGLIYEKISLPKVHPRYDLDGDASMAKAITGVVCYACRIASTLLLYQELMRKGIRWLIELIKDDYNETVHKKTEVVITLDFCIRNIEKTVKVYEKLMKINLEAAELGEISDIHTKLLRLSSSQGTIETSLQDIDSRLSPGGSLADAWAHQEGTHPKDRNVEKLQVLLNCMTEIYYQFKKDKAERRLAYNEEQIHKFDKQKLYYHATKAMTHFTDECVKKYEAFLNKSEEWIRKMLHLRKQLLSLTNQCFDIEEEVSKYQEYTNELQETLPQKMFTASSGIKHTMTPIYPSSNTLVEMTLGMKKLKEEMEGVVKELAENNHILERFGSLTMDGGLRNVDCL
In words: TBK biochemical assay. Particulars: 10 point 1:4 dose response, 30 uM top concentration, 90 min at 25° C., LabChip EZ Reader II; read-out: TBK1_IC50. A digest of the protocol:
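Substrate and product were separated and quantified by microfluidic mobility-shift read (LabChip). 10 uM staurosporine served as the full-inhibition control, and the reference compound was tested from 1 uM final.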

With `COc1nc(Nc2nccc(-c3ccc(OC4CCN(C(=O)[C@@H](O)CO)CC4(F)F)c(C#N)c3)n2)ccc1N1CCN(C2COC2)CC1` (stereo partly drawn) [Example 260, 2-[1-((S)-2,3-Dihydroxy-propionyl)-3,3-difluoro-piperidin-4-yloxy]-5-{2-[6-methoxy-5-(4-oxetan-3-yl-piperazin-1-yl)-pyridin-2-ylamino]-pyrimidin-4-yl}-benzonitrile], the IC50 on IKKε and at TBK1 was < 100 nM throughout.
Turning to `C[C@@H](O)C(=O)N1CCC(Oc2ccc(-c3ccnc(Nc4ccc(C5CCN(C6COC6)C5)cc4)n3)cc2C#N)C(F)(F)C1` (stereo partly drawn) [Example 214, 2-([3,3-difluoro-1-[(2R)-2-hydroxypropanoyl]piperidin-4-yl]oxy)-5-[2-([4-[1-(oxetan-3-yl)pyrrolidin-3-yl]phenyl]amino)pyrimidin-4-yl]benzonitrile], the IC50 on IKKε and at TBK1 was < 100 nM each time.
As for `COc1nc(Nc2nccc(-c3cc(C#N)c(OC4CCOCC4)cn3)n2)ccc1N1CCN(C)CC1` [Example 44, 2-(2-[[6-methoxy-5-(4-methylpiperazin-1-yl)pyridin-2-yl]amino]pyrimidin-4-yl)-5-(oxan-4-yloxy)pyridine-4-carbonitrile hydrochloride], the IC50 at IKKε was > 5000 nM; on TBK1, 1000 to 5000 nM.
As to `COc1cc(Nc2nccc(-c3ccc(OC4CCOCC4)c(C#N)c3)n2)cnc1N1CCN(C)CC1` [Example 54, 5-(2-[[5-methoxy-6-(4-methylpiperazin-1-yl)pyridin-3-yl]amino]pyrimidin-4-yl)-2-(oxan-4-yloxy)benzonitrile], the IC50 at IKKε and on TBK1 was < 100 nM each time.
Regarding `COc1cc(Nc2nccc(-c3ccc(OC4CCN(C(=O)[C@H](C)O)CC4(F)F)c(C#N)c3)n2)ccc1C1CCN(C2COC2)CC1` (stereo partly drawn) [Example 311, 2-([3,3-difluoro-1-[(2S)-2-hydroxypropanoyl]piperidin-4-yl]oxy)-5-[2-([3-methoxy-4-[1-(oxetan-3-yl)piperidin-4-yl]phenyl]amino)pyrimidin-4-yl]benzonitrile], the IC50 at IKKε and at TBK1 was < 100 nM in each case.
Consider `N#Cc1cc(-c2ccnc(Nc3ccc(N4CCN(C5COC5)CC4)cc3)n2)ccc1OC1CCOCC1` [Example 135, 2-(oxan-4-yloxy)-5-[2-([4-[4-(oxetan-3-yl)piperazin-1-yl]phenyl]amino)pyrimidin-4-yl]benzonitrile], for which the IC50 on IKKε and on TBK1 was < 100 nM each time.
Consider `COc1cc(Nc2nccc(-c3cc(C#N)c(OC4CCOCC4)cn3)n2)cnc1C(=O)N(C)C` [Example 52, 5-([4-[4-cyano-5-(oxan-4-yloxy)pyridin-2-yl]pyrimidin-2-yl]amino)-3-methoxy-N,N-dimethylpyridine-2-carboxamide], for which the IC50 on IKKε and at TBK1 was 1000 to 5000 nM each time.
With `C[C@@H](O)C(=O)N1CC[C@H](Oc2ccc(-c3ccnc(Nc4ccc(N5CCN(C6COC6)CC5)cc4)n3)cc2C#N)C(F)(F)C1` [Example 142, 2-[[(4S)-3,3-difluoro-1-[(2R)-2-hydroxypropanoyl]piperidin-4-yl]oxy]-5-[2-([4-[4-(oxetan-3-yl)piperazin-1-yl]phenyl]amino)pyrimidin-4-yl]benzonitrile], the IC50 at IKKε and at TBK1 was < 100 nM throughout.
As for `N#Cc1cc(-c2ccnc(Nc3ccccc3)n2)ccc1OC1CCN(C(=O)[C@@H](O)CO)CC1(F)F` (stereo partly drawn) [Example 210, 2-[1-((S)-2,3-Dihydroxy-propionyl)-3,3-difluoro-piperidin-4-yloxy]-5-(2-phenylamino-pyrimidin-4-yl)-benzonitrile], the IC50 on IKKε and at TBK1 was < 100 nM throughout.
As to `COc1nc(Nc2nccc(-c3ccc(OC4CCOCC4)c(C#N)c3)n2)ccc1C(=O)N1CC2CCC1CO2` (stereo not drawn) [Example 11, 5-(2-[[6-methoxy-5-([2-oxa-5-azabicyclo[2.2.2]octan-5-yl]carbonyl)pyridin-2-yl]amino]pyrimidin-4-yl)-2-(oxan-4-yloxy)benzonitrile], the IC50 at IKKε and at TBK1 was < 100 nM in each case.
Take `Cc1nc(C(=O)N2CCC(Oc3ccc(-c4ccnc(Nc5ccc(N6CCN(C7COC7)CC6)cc5)n4)cc3C#N)CC2)n[nH]1` [Example 273, 2-[[1-(5-methyl-1H-1,2,4-triazole-3-carbonyl)piperidin-4-yl]oxy]-5-[2-([4-[4-(oxetan-3-yl)piperazin-1-yl]phenyl]amino)pyrimidin-4-yl]benzonitrile]: the IC50 at IKKε and on TBK1 was < 100 nM throughout.
As for `COc1nc(Nc2nccc(-c3ccc(OC4CCN(C)CC4)c(C#N)c3)n2)ccc1N1CCN(C)CC1` [Example 88, 5-(2-[[6-methoxy-5-(4-methylpiperazin-1-yl)pyridin-2-yl]amino]pyrimidin-4-yl)-2-[(1-methylpiperidin-4-yl)oxy]benzonitrile], the IC50 at IKKε and on TBK1 was 100 to 1000 nM each time.
Turning to `COc1nc(Nc2nccc(-c3ccc(OC4CCN(C(=O)C(C)O)CC4(F)F)c(C#N)c3)n2)ccc1N1CCN(C2COC2)CC1` (stereo in doubt) [Example 261, 2-([3,3-difluoro-1-[(2S)-2-hydroxypropanoyl]piperidin-4-yl]oxy)-5-[2-([6-methoxy-5-[4-(oxetan-3-yl)piperazin-1-yl]pyridin-2-yl]amino)pyrimidin-4-yl]benzonitrile], the IC50 at IKKε and at TBK1 was < 100 nM throughout.
On to `COc1nc(Nc2nccc(-c3ccc(OC4CCN(C(=O)c5n[nH]c(C)n5)CC4)c(C#N)c3)n2)ccc1C(=O)N(C)C` [Example 78, 6-([4-[3-cyano-4-([1-[(5-methyl-1H-1,2,4-triazol-3-yl)carbonyl]piperidin-4-yl]oxy)phenyl]pyrimidin-2-yl]amino)-2-methoxy-N,N-dimethylpyridine-3-carboxamide], for which the IC50 at IKKε and on TBK1 was < 100 nM in each case.
As to `COc1nc(Nc2nccc(-c3ccc(OC4CCN(C(=O)[C@@H](C)O)C4)c(C#N)c3)n2)ccc1N1CCN(C2COC2)CC1` (stereo partly drawn) [Example 184, 2-([1-[(2R)-2-hydroxypropanoyl]pyrrolidin-3-yl]oxy)-5-[2-([6-methoxy-5-[4-(oxetan-3-yl)piperazin-1-yl]pyridin-2-yl]amino)pyrimidin-4-yl]benzonitrile], the IC50 at IKKε and at TBK1 was 100 to 1000 nM each time.
With `C[C@@H](O)C(=O)N1CCC(Oc2ccc(-c3ccnc(Nc4cccc(C5CCN(C6COC6)CC5)c4)n3)cc2C#N)C(F)(F)C1` (stereo partly drawn) [Example 225, 2-[3,3-Difluoro-1-((R)-2-hydroxy-propionyl)-piperidin-4-yloxy]-5-{2-[3-(1-oxetan-3-yl-piperidin-4-yl)-phenylamino]-pyrimidin-4-yl}-benzonitrile], the IC50 on IKKε and at TBK1 was < 100 nM each time.
On to `COc1nc(Nc2nccc(-c3ccc(OC4COC4)c(C#N)c3)n2)ccc1N1CCN(C2COC2)CC1` [Example 160, 5-[2-([6-methoxy-5-[4-(oxetan-3-yl)piperazin-1-yl]pyridin-2-yl]amino)pyrimidin-4-yl]-2-(oxetan-3-yloxy)benzonitrile], for which the IC50 on IKKε and on TBK1 was 100 to 1000 nM in each case.
`COc1nc(Nc2nccc(-c3ccc(OC4CCNCC4(F)F)c(C#N)c3)n2)ccc1N1CCN(C)C[C@H]1C` (stereo partly drawn) [Example 108, 2-(3,3-Difluoro-piperidin-4-yloxy)-5-{2-[5-((R)-2,4-dimethyl-piperazin-1-yl)-6-methoxy-pyridin-2-ylamino]-pyrimidin-4-yl}-benzonitrile]: the IC50 at IKKε and at TBK1 was < 100 nM in each case.
